Measured values published in ChEMBL document CHEMBL1152932, “Inhibitory effects of phloroglucinol derivatives isolated from Ecklonia stolonifera on Fc(epsilon)RI expression” (Bioorg Med Chem, 2009).

Legend:
[1] = target: T1, High affinity immunoglobulin epsilon receptor subunit alpha (Homo sapiens) (UniProt P12319); experiment: Inhibition of Fc-epsilonR1-mediated histamine release in anti-human Fc-epsilonR1 antibody-stimulated human KU-812F cells by spectrofluorimetry; assay type: cell-based
T1 sequence (whole entry): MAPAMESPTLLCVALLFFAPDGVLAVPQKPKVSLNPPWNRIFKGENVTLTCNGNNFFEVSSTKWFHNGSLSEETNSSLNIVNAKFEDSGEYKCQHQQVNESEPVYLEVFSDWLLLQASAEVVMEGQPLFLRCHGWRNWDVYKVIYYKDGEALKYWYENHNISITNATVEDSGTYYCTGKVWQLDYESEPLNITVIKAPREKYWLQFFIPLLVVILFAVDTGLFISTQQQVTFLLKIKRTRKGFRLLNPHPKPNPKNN

[2] = target: T1, High affinity immunoglobulin epsilon receptor subunit alpha (Homo sapiens); experiment: Inhibition of Fc-epsilonR1-mediated [Ca2+]i elevation in anti-human Fc-epsilonR1 antibody-stimulated human KU-812F cells; assay type: cell-based
[3] = tested on: KU-812F; experiment: Inhibition of Fc-epsilonR1 alpha mRNA expression in anti-human Fc-epsilonR1 antibody-stimulated human KU-812F cells after 24 hrs by RT-PCR; assay type: functional, cell-based
[4] = tested on: KU-812F; experiment: Inhibition of Fc-epsilonR1 protein expression in anti-human Fc-epsilonR1 antibody-stimulated human KU-812F cells after 24 hrs by Western blotting; assay type: functional, cell-based
[5] = Inhibition of Fc-epsilonR1 expression in anti-human Fc-epsilonR1 antibody-stimulated human KU-812F cells at 50 uM after 24 hrs by flow cytometry; assay type: functional
[6] = Inhibition of Fc-epsilonR1 expression in anti-human Fc-epsilonR1 antibody-stimulated human KU-812F cells at 25 uM after 24 hrs by flow cytometry; assay type: functional
[7] = Inhibition of Fc-epsilonR1 expression in anti-human Fc-epsilonR1 antibody-stimulated human KU-812F cells at 10 uM after 24 hrs by flow cytometry; assay type: functional
[8] = Inhibition of Fc-epsilonR1 expression in anti-human Fc-epsilonR1 antibody-stimulated human KU-812F cells at 5 uM after 24 hrs by flow cytometry; assay type: functional

Oc1cc(O)cc(Oc2c(O)cc(O)c3c2Oc2c(O)cc4oc5c(Oc6cc(O)cc(O)c6)c(O)cc(O)c5c4c2O3)c1
Activity [1]: Dose-dependent effect
Activity [2]: Dose-dependent effect
Activity [3]: Dose-dependent effect
Activity [4]: Dose-dependent effect

Oc1cc(O)c2oc3cc(O)c4oc5cc(O)cc(O)c5oc4c3oc2c1 [DIOXINODEHYDROECKOL]
Activity [1]: Dose-dependent effect
Activity [2]: Dose-dependent effect
inhibition at 50 µM [5]: 16.9%
inhibition at 25 µM [6]: 19.5%
Activity [3]: Dose-dependent effect
Activity [4]: Dose-dependent effect
inhibition at 10 µM [7]: 23.1%
inhibition at 5 µM [8]: 25.2%
